Here are results for one molecule from publication PMC10166914, “GTN057, a komaroviquinone derivative, induced myeloma cells' death in vivo and inhibited c‐MET tyrosine kinase” (Cancer Medicine, 2023).

Structures are written as SMILES.

Series [1] concerns FGF-2 stimulated ERK1/2, STAT3, AKT1 phosphorylation. The series can be described thus: Western blot, FGF-2-stimulated signaling in KMS11 cells. The format is cell-based, human. Particulars: KMS11 cells stimulated by FGF-2. How it is done: (§1) MM cells (4 × 10^5 cells/mL) were incubated with 0–20 μM GTN057 for 12 h. The cells were then co‐cultured with 0–50 ng/mL of hepatocyte growth factor (HGF) (PeproTech, London) or 0–20 ng/mL of fibroblast growth factor (FGF)‐2 (PeproTech) with 1 unit/mL of heparin in RPMI containing 4% dialyzed FCS (Gibco) for the KMS11 and KMS34 cells and 10% dialyzed FCS for the KMS21 cells for 15 min at RT (room temperature). A549 cells were co‐cultured with 0–50 ng/mL of epidermal growth factor (EGF) (PeproTech) in Eagle's MEM containing 4% dialyzed FCS for 15 min at RT. […]
(§2) The protein concentrations were measured using a BCA Protein Assay Kit (Thermo Fisher Scientific). […]
(§3) Antibodies against phospho‐STAT3 (Tyr705), phospho‐Akt (Ser473), p44/42 MAPK (Erk 1/2), phosphor‐p44/42 MAPK (Thr202/Tyr 204), and phospho‐c‐Met (Tyr1234/1235) (all from Cell Signaling Technology, Danvers, MA) or STAT3, Akt, c‐Met, and β‐actin (all from Santa Cruz Biotechnology, Santa Cruz, CA) or phospho‐c‐Met (Tyr1230/1234/1235) (Biosource, Camarillo, CA for KMS34 cells in Figure 3A) were each used at 1:1000 dilution. […] The Western blotting signals were detected by enhanced ECL chemiluminescence (Amersham). The signal intensity of each band was quantified densitometrically with ImageJ software (ver. 1.48, U.S. National Institutes of Health).
Background: A western blot detects proteins with antibodies after separation by electrophoresis.

Series [2] deals with MUM24 cells. The series can be described thus: ROS production and growth recovery by anti-oxidants. It counts as cell-based, human. How it is done: First, 2 × 10^5 cells/mL of MUM24 cells were incubated with or without 6 mM NAC (N‐acetyl cysteine; Sigma‐Aldrich) or 3 mM GSH (glutathione; Sigma‐Aldrich) for 2 h. Next, 20 μM GTN057 was added and cultured for an additional 72 h. Cells were incubated with 1 μM CM‐H2DCFDA (i.e., 5‐(and‐6)‐chloromethyl‐2′, 7′‐dichlorodihydrofluorescein diacetate) for 30 min. For the evaluation of ROS production, the cells were stained with CM‐H2DCFDA and analyzed using a FACS (fluorescence‐activated cell sorting) system (LSR II, BD Biosciences). For the assessment of growth recovery by NAC or GSH, 2 × 10^5 cells/mL of MUM24 cells were also treated with 20 μM GTN057 in the presence or absence of 6 mM NAC or 3 mM GSH as described above. We conducted a trypan blue exclusion test to determine the numbers of viable cells.

The next series concerns KMS11 cells. In words: Growth inhibition, trypan blue exclusion assay. The format is cell-based. Particulars: Homo sapiens, KMS-11, KMS11, 48 h. The method, then: (§4) For the trypan blue exclusion assay, 2 × 10^5 cells/mL of each MM cell line were incubated with various concentrations of GTN057 (0–20 μM). The cells were cultured in triplicate plates, and viable cells were evaluated by a trypan blue exclusion assay (Trypan Blue Stain 0.4%, Gibco) using an automatic cell counter (TC20™, Bio‐Rad).

The test system of the next series is KMS34 cells. The series can be described thus: Growth inhibition, trypan blue exclusion assay. The format is cell-based. Particulars: Homo sapiens, KMS-34, KMS34, 48 h. How it is done:
as §4

Series [3] has as its system MUM24 cells. The series can be described thus: Growth inhibition, trypan blue exclusion assay. It counts as cell-based. Particulars: Homo sapiens, MUM24, 48 h. The method, then: as §4
The subject of a further series is KMS28 cells. In words: Growth inhibition, trypan blue exclusion assay. Particulars: Homo sapiens, KMS28, 48 h. The format is cell-based. The method, then:
as §4

A further series concerns KMM1 cells. The series can be described thus: Growth inhibition, trypan blue exclusion assay. It counts as cell-based. As to conditions: Homo sapiens, KMM-1, KMM1, 48 h. How it is done:
as §4

The subject of a further series is KMS21 cells. The series can be described thus: Growth inhibition, trypan blue exclusion assay. As to conditions: Homo sapiens, KMS21, 48 h. It counts as cell-based. How it is done:
as §4

The subject of a further series is KMS26 cells. In words: Growth inhibition, trypan blue exclusion assay. The format is cell-based. Particulars: Homo sapiens, KMS-26, KMS26, 48 h. How it is done:
as §4

Another series relates to KMS27 cells. In words: Growth inhibition, trypan blue exclusion assay. Particulars: Homo sapiens, KMS-27, KMS27, 48 h. The format is cell-based. How it is done:
as §4

Series [4] can be described thus: Toxicity assessment in ICR mice. The format is in vivo. The text has this:
For the toxicity assessment of GTN057 in vivo, we intraperitoneally (i.p.)‐injected male 5‐week‐old ICR mice (CLEA, […]) dissolved in 1% Tween® 80 + 10% DMSO in saline on 2 consecutive days of every 3‐day period for 2 weeks. The mice were weighed every week. Peripheral blood was collected with a heparinized hematocrit tube (Terumo, Tokyo) from the tail vein of each mouse every week and was stained with Türk's solution (Merck). The numbers of leukocytes and neutrophils were counted using light microscopy.

The next series has as its target T1, c-MET (Homo sapiens, UniProt P08581).
T1 construct: endogenous in cells; host or cells: KMS34 multiple myeloma cells
The series can be described thus: Western blot, dose-dependent inhibition of c-MET phosphorylation in KMS34 cells. The format is cell-based. Particulars: Western blot densitometry, read-out: 50% inhibition of the phosphorylation of c-MET. The method, then: as §1, §2, §3

T1 sequence (P08581 25-1390): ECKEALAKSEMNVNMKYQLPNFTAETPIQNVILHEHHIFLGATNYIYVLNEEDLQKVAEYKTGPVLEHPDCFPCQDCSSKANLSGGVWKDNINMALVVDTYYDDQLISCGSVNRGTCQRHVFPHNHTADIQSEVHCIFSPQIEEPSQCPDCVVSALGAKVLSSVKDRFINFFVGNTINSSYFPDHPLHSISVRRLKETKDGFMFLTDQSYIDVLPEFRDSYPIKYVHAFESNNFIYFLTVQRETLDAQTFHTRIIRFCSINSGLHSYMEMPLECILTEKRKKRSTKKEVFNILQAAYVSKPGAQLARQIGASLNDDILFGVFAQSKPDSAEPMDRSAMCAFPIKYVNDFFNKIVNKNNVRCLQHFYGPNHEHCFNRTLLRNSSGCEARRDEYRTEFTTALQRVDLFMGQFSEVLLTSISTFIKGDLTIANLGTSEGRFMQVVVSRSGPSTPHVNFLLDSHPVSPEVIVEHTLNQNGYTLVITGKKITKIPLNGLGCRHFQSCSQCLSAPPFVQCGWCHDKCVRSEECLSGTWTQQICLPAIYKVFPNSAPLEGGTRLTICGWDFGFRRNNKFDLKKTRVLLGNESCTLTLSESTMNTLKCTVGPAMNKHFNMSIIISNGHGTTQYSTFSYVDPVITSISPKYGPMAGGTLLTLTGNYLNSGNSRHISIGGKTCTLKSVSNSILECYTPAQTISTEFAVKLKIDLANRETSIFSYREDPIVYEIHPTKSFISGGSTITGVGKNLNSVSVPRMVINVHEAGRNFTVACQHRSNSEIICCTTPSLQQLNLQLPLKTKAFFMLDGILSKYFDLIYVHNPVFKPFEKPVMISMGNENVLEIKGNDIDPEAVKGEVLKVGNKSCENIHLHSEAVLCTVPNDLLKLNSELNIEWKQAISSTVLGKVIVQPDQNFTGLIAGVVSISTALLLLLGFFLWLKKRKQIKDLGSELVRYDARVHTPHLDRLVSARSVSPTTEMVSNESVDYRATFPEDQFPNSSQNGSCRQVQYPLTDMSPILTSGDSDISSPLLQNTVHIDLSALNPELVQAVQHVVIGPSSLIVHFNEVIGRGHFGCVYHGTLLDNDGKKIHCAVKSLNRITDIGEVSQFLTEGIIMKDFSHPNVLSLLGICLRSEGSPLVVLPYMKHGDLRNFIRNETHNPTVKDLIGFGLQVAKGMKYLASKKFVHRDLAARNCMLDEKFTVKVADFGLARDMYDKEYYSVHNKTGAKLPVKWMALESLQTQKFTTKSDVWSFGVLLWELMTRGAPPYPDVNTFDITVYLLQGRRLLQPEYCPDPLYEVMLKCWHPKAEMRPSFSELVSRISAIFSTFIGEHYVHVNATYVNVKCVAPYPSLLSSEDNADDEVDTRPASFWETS

Consider `COc1c(OC(C)=O)c2c(c(O)c1C(C)C)C(=O)CC1C(C)(C)CCC[C@]1(O)C2` (stereo partly drawn) [GTN057], for which the “ERK1/2, STAT3, AKT1 phosphorylation levels” value in series [1] was “did not clearly change”. In addition, the “Abrogation of growth inhibition and apoptosis by anti-oxidants” value in the series on MUM24 cells [2] (20 μM GTN057 with 6 mM NAC or 3 mM GSH) is “not significantly abrogated”. In the series on MUM24 cells [2] (20 μM, MM cells, CM-H2DCFDA, FACS), the ROS production result is “produced ROS”. Moreover, the IC50 with KMS11 cells came out at 11.2 µM; with KMS34 cells it was 20.1 µM; in the series on MUM24 cells [3] it was 5.29 µM; with KMS28 cells it was 24 µM; with KMM1 cells it was 20.5 µM; in the series on KMS21 cells, 10.1 µM. Moreover, the figures for the IC50 with KMS26 cells, with KMS27 cells and at c-MET were 9.91 µM, 7.93 µM and 35.9 µM, respectively. For the same molecule, in series [4] (100 mg/kg, 2 days of each 3-day period over 2 weeks, mice), the “Neutropenia and systemic toxicity” value is on record as “no significant neutropenia or systemic toxicity”. Also, in [4] (40 or 100 mg/kg i.p., 2 consecutive days of each 3-day period for 2 weeks, ICR mice), the “Body weight and leukocyte count” value was “neither a loss of body weight nor leukocytopenia”. In addition, the Maximal tolerated dose in series [4] (i.p., 2 days of every 3-day period, mice) is not below 100 mg/kg.
